# Structures can show the parent of a compound that is named as a salt.
# Target: T1, human recombinant HPK1 (Homo sapiens, UniProt Q92918)
# T1 construct: purchased BPS Bioscience
# Assay: Inhibitory activity against human recombinant HPK1 (TR-FRET)
# Format: biochemical
# Settings: ULight-p70S6K peptide, ATP at Km, room temperature, 1 hour, 0.32 to 1000 nM compound
# Procedure, shortened: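 Recombinant human HPK1 with ULight-p70S6K peptide and ATP at Km, 1 h at room temperature in HEPES pH 7.4 buffer with Mg2+, Mn2+, EGTA, DTT; compounds 0.32–1000 nM final. EDTA stop, Eu-anti-phosphopeptide TR-FRET read (665 nm); IC50 from % inhibition versus DMSO, binned A–D at 10, 50, 100 nM.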
# T1 sequence (Q92918 whole entry): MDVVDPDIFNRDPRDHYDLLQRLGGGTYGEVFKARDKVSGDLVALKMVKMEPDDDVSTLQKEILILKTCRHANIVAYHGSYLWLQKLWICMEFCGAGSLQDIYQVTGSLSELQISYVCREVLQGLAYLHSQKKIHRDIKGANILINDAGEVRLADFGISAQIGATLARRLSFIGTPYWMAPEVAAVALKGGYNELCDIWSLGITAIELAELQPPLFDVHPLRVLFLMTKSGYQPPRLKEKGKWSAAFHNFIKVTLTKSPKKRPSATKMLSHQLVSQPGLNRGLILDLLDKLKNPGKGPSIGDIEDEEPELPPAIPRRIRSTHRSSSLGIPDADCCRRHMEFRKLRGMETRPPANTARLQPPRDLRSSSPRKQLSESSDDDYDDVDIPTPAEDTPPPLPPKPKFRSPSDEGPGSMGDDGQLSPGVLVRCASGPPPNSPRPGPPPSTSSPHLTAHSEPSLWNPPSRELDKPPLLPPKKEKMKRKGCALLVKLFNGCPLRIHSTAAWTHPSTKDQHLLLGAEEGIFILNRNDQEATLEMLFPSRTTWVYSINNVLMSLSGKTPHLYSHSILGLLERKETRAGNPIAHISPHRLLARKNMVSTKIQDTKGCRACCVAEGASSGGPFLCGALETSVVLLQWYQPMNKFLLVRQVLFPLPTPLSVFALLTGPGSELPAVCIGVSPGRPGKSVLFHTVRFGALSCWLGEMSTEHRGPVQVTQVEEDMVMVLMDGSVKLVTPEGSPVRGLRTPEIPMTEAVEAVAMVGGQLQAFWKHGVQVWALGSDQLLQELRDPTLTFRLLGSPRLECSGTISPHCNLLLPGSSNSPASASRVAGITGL
row,SMILES,IC50 [nM]
1,"COc1cccc(F)c1-c1nccc(Nc2cc(N3CCC[C@H](N)C3)c(-c3cn(C)nc3C(F)(F)F)cn2)n1 [Example 131, (S)-N-(4-(3-aminopiperidin-1-yl)-5-(1-methyl-3-(trifluoromethyl)-1H-pyrazol-4-yl)pyridin-2-yl)-2-(2-fluoro-6-methoxyphenyl)pyrimidin-4-amine hydrochloride]",50 to 100
2,"COc1cccc(F)c1-c1nccc(Nc2cc(N3CC(O)C3)c(C(=O)C3CC3)cn2)n1 [Example 6, cyclopropyl(6-((2-(2-fluoro-6-methoxyphenyl)pyrimidin-4-yl)amino)-4-(3-hydroxyazetidin-1-yl)pyridin-3-yl)methanone]",10 to 50
3,"COc1cccc(F)c1-c1nc(Nc2cc(N3CCC[C@H](O)C3)c(-c3cnn(C4CCOCC4)c3)cn2)ccc1C [Example 58, (3S)-1-(2-((6-(2-fluoro-6-methoxyphenyl)-5-methylpyridin-2-yl)amino)-5-(1-(tetrahydro-2H-pyran-4-yl)-1H-pyrazol-4-yl)pyridin-4-yl)piperidin-3-ol]",> 100
4,"COc1cccc(F)c1-c1nccc(Nc2cc(N3CC[C@@H](O)[C@H](N)C3)c(-c3cnn(C(F)F)c3)cn2)n1 [Example 209, (3R,4R)-3-amino-1-(5-(1-(difluoromethyl)-1H-pyrazol-4-yl)-2-((2-(2-fluoro-6-methoxyphenyl)pyrimidin-4-yl)amino)pyridin-4-yl)piperidin-4-ol hydrochloride]",≤ 10
5,"COc1cccc(F)c1-c1nccc(Nc2cc(N3CCC[C@H](O)C3)c(-c3cnn(C4CCN(C)CC4)c3)cn2)n1 [Example 15, (S)-1-(2-((2-(2-fluoro-6-methoxyphenyl)pyrimidin-4-yl)amino)-5-(1-(1-methylpiperidin-4-yl)-1H-pyrazol-4-yl)pyridin-4-yl)piperidin-3-ol]",≤ 10
6,"COc1cccc(F)c1-c1nccc(Nc2cc(N3CC(O)C3)c(C#CC3CCOCC3)cn2)n1 [Example 10, 1-(2-((2-(2-fluoro-6-methoxyphenyl)pyrimidin-4-yl)amino)-5-((tetrahydro-2H-pyran-4-yl)ethynyl)pyridin-4-yl)azetidin-3-ol]",10 to 50
7,"COc1cc(F)cc(F)c1-c1nc(Nc2cc(N3CCC[C@H](O)C3)c(-c3cnn(C4CCOCC4)c3)cn2)ccc1N [Example 227, (3S)-1-(2-((5-amino-6-(2,4-difluoro-6-methoxyphenyl)pyridin-2-yl)amino)-5-(1-(tetrahydro-2H-pyran-4-yl)-1H-pyrazol-4-yl)pyridin-4-yl)piperidin-3-ol]",≤ 10
8,"COc1cccc(F)c1-c1nc(Nc2cc(N3CCC[C@H](O)C3)c(-c3ccc(C(=O)N4CCC(O)CC4)nc3)cn2)ccc1[N+](=O)[O-] [Example 54, (6′-((6-(2-fluoro-6-methoxyphenyl)-5-nitropyridin-2-yl)amino)-4′-((S)-3-hydroxypiperidin-1-yl)-[3,3′-bipyridin]-6-yl)(4-hydroxypiperidin-1-yl)methanone]",10 to 50
9,"COc1cccc(F)c1-c1nc(Nc2cc(N3CCC[C@H](N)C3)c(-c3cnn(C4CC4)c3)cn2)ccc1C#N [Example 329, 6-((4-((S)-3-aminopiperidin-1-yl)-5-(1-cyclopropyl-1H-pyrazol-4-yl)pyridin-2-yl)amino)-2-(2-fluoro-6-methoxyphenyl)nicotinonitrile hydrochloride]",≤ 10
10,"COc1cccc(F)c1-c1nccc(Nc2cc(N3CCC(C)(CO)C3)c(-c3cnn(C4CCOCC4)c3)cn2)n1 (centres unmarked) [Example 45, (1-(2-((2-(2-fluoro-6-methoxyphenyl)pyrimidin-4-yl)amino)-5-(1-(tetrahydro-2H-pyran-4-yl)-1H-pyrazol-4-yl)pyridin-4-yl)-3-methylpyrrolidin-3-yl)methanol]",> 100
11,"COc1cc(C(=O)N2CC(F)(F)C2)cc(F)c1-c1nccc(Nc2cc(N3CCC[C@H](O)C3)c(-c3cnn(C(F)F)c3)cn2)n1 [Example 231, (S)-(3,3-difluoroazetidin-1-yl)(4-(4-((5-(1-(difluoromethyl)-1H-pyrazol-4-yl)-4-(3-hydroxypiperidin-1-yl)pyridin-2-yl)amino)pyrimidin-2-yl)-3-fluoro-5-methoxyphenyl)methanone]",≤ 10
12,"COc1cccc(F)c1-c1nccc(Nc2cc(N3CC[C@H](N)[C@H](C)C3)c(-c3cnn(C(F)F)c3)cn2)n1 [Example 297, N-(4-((3R,4S)-4-amino-3-methylpiperidin-1-yl)-5-(1-(difluoromethyl)-1H-pyrazol-4-yl)pyridin-2-yl)-2-(2-fluoro-6-methoxyphenyl)pyrimidin-4-amine hydrochloride]",≤ 10
13,"COc1cccc(F)c1-c1nccc(Nc2cc(N3CCC[C@H](O)C3)c(-c3ccc(CN4CCC(O)C4)nc3)cn2)n1 (stereo partly drawn) [Example 43, (3S)-1-(6-((2-(2-fluoro-6-methoxyphenyl)pyrimidin-4-yl)amino)-6′-((3-hydroxypyrrolidin-1-yl)methyl)-[3,3′-bipyridin]-4-yl)piperidin-3-ol]",≤ 10

# The next lines start with the values.
row,IC50 [nM],SMILES
1,≤ 10,"COc1cc(C(=O)N2CC[C@H](F)C2)cc(F)c1-c1nccc(Nc2cc(N3CCC[C@H](O)C3)c(-c3cnn(C(F)F)c3)cn2)n1 [Example 232, (4-(4-((5-(1-(difluoromethyl)-1H-pyrazol-4-yl)-4-((S)-3-hydroxypiperidin-1-yl)pyridin-2-yl)amino)pyrimidin-2-yl)-3-fluoro-5-methoxyphenyl)((S)-3-fluoropyrrolidin-1-yl)methanone]"
2,≤ 10,"COc1cccc(F)c1-c1nc(Nc2cc(N3CCC[C@H](O)C3)c(C(=O)N[C@@H]3CC[C@H](O)C3)cn2)ccc1N [Example 202, 6-((5-amino-6-(2-fluoro-6-methoxyphenyl)pyridin-2-yl)amino)-N-((1R,3S)-3-hydroxycyclopentyl)-4-((S)-3-hydroxypiperidin-1-yl)nicotinamide]"
3,≤ 10,"N[C@H]1CCCN(c2cc(Nc3ccnc(-c4cccnc4O)n3)ncc2-c2cnn(C3CCOCC3)c2)C1 [Example 80, (S)-3-(4-((4-(3-aminopiperidin-1-yl)-5-(1-(tetrahydro-2H-pyran-4-yl)-1H-pyrazol-4-yl)pyridin-2-yl)amino)pyrimidin-2-yl)pyridin-2-ol hydrochloride]"
4,≤ 10,"COc1cccc(F)c1-c1nc(Nc2cc(N3CCC[C@H](O)C3)c(-c3cnn(C4CCOCC4)c3)cn2)ccc1Cl [Example 75, (3S)-1-(2-((5-chloro-6-(2-fluoro-6-methoxyphenyl)pyridin-2-yl)amino)-5-(1-(tetrahydro-2H-pyran-4-yl)-1H-pyrazol-4-yl)pyridin-4-yl)piperidin-3-ol]"
5,≤ 10,"COc1cccc(F)c1-c1nc(Nc2cc(N3CCC[C@H](N)C3)c(-c3cnn(CC4CC4)c3)cn2)ccc1C#N [Example 330, 6-((4-((S)-3-aminopiperidin-1-yl)-5-(1-(cyclopropylmethyl)-1H-pyrazol-4-yl)pyridin-2-yl)amino)-2-(2-fluoro-6-methoxyphenyl)nicotinonitrile hydrochloride]"
6,≤ 10,"COc1cccc(F)c1-c1nccc(Nc2cc(N3CCC[C@H](N)C3)c(-c3ccc(N4CCOCC4)c(C)c3)cn2)n1 [Example 287, (S)-N-(4-(3-aminopiperidin-1-yl)-5-(3-methyl-4-morpholinophenyl)pyridin-2-yl)-2-(2-fluoro-6-methoxyphenyl)pyrimidin-4-amine hydrochloride]"
7,≤ 10,"COc1cccc(F)c1-c1nc(Nc2cc(N3CCC[C@H](O)C3)c(C(=O)N[C@@H]3CC[C@H]3O)cn2)ccc1[N+](=O)[O-] [Example 197, 6-((6-(2-fluoro-6-methoxyphenyl)-5-nitropyridin-2-yl)amino)-N-((1R,2R)-2-hydroxycyclobutyl)-4-((S)-3-hydroxypiperidin-1-yl)nicotinamide]"
8,≤ 10,"COc1cccc(F)c1-c1nccc(Nc2cc(N3CCC[C@H](N)C3)c(-c3cnn(CCO)c3)cn2)n1 [Example 133, (S)-2-(4-(4-(3-aminopiperidin-1-yl)-6-((2-(2-fluoro-6-methoxyphenyl)pyrimidin-4-yl)amino)pyridin-3-yl)-1H-pyrazol-1-yl)ethan-1-ol hydrochloride]"
9,≤ 10,"COc1cccc(F)c1-c1nccc(Nc2cc(N3CCC[C@H](N)C3)c(-c3ccc(C(=O)N[C@H]4CC[C@H](O)CC4)cc3)cn2)n1 [Example 289, 4-(4-((S)-3-aminopiperidin-1-yl)-6-((2-(2-fluoro-6-methoxyphenyl)pyrimidin-4-yl)amino)pyridin-3-yl)-N-((1r,4S)-4-hydroxycyclohexyl)benzamide hydrochloride]"
10,≤ 10,"COc1cc(F)cc(F)c1-c1nc(Nc2cc(N3CC[C@@H](C)[C@H](N)C3)c(-c3cnn(C(F)F)c3)cn2)ccc1C#N [Example 338, 6-((4-((3S,4R)-3-amino-4-methylpiperidin-1-yl)-5-(1-(difluoromethyl)-1H-pyrazol-4-yl)pyridin-2-yl)amino)-2-(2,4-difluoro-6-methoxyphenyl)nicotinonitrile hydrochloride]"
11,≤ 10,"COc1cccc(F)c1-c1nccc(Nc2cc(N3C[C@@H](N)C[C@H](O)C3)c(-c3cnn(C(F)F)c3)cn2)n1 [Example 306, (3S,5S)-5-amino-1-(5-(1-(difluoromethyl)-1H-pyrazol-4-yl)-2-((2-(2-fluoro-6-methoxyphenyl)pyrimidin-4-yl)amino)pyridin-4-yl)piperidin-3-ol hydrochloride]"
12,≤ 10,"COc1cc(F)cc(F)c1-c1nc(Nc2cc(N3CC[C@@H](F)[C@H](N)C3)c(-c3cnn(C(C)C)c3)cn2)ccc1C#N [Example 340, 6-((4-((3R,4R)-3-amino-4-fluoropiperidin-1-yl)-5-(1-isopropyl-1H-pyrazol-4-yl)pyridin-2-yl)amino)-2-(2,4-difluoro-6-methoxyphenyl)nicotinonitrile hydrochloride]"
13,≤ 10,"COc1cccc(F)c1-c1nc(Nc2cc(N3CCC[C@H](O)C3)c(C(=O)NC3CC(F)(F)C3)cn2)ccc1[N+](=O)[O-] [Example 198, N-(3,3-difluorocyclobutyl)-6-((6-(2-fluoro-6-methoxyphenyl)-5-nitropyridin-2-yl)amino)-4-((S)-3-hydroxypiperidin-1-yl)nicotinamide]"
